{"source": "ChEMBL document CHEMBL3885881", "about": "“DrugMatrix”", "organism": "Rattus norvegicus", "experiment": "DrugMatrix - Regimen: Daily Repeat", "format": "toxicity, organism-based, Sprague-Dawley", "design": "regimen Daily Repeat, gender Male, age 6-8 weeks", "settings": "in vivo, po, route oral GAVAGE; for POTASSIUM / SODIUM / TOTAL BILIRUBIN / TOTAL PROTEIN / URIC ACID / ALANINE AMINOTRANSFERASE / ALBUMIN / ALKALINE PHOSPHATASE / ASPARTATE AMINOTRANSFERASE / BLOOD UREA NITROGEN / CARBON DIOXIDE / CHLORIDE / CHOLESTEROL / CREATINE PHOSPHOKINASE / CREATININE / GLUCOSE / LACTATE DEHYDROGENASE / LIPASE / PHOSPHORUS: tissue Plasma", "key": {"[1]": {"settings": "60 mg/kg, 120 h, dose level Low, time 5 day, vehicle 100 % WATER"}, "[2]": {"settings": "600 mg/kg, 72 h, tissue Blood, dose level High, time 3 day, […]"}, "[3]": {"settings": "600 mg/kg, 72 h, tissue Blood, dose level High, time 3 day, vehicle 100 % WATER"}, "[4]": {"settings": "600 mg/kg, 72 h, dose level High, time 3 day, […]"}, "[5]": {"settings": "600 mg/kg, 72 h, dose level High, time 3 day, vehicle 100 % WATER"}}}
{"compound": "ClC(Cl)Cl", "note": "[CHLOROFORM]", "values": [{"measurement": "POTASSIUM", "setting": "[1]", "value": 6.14, "unit": "MEQ/L"}, {"measurement": "SODIUM", "setting": "[1]", "value": 145.6, "unit": "MEQ/L"}, {"measurement": "TOTAL BILIRUBIN", "setting": "[1]", "value": 0.1, "unit": "mg/dL"}, {"measurement": "TOTAL PROTEIN", "setting": "[1]", "value": 6.3, "unit": "G/DL"}, {"measurement": "URIC ACID", "setting": "[1]", "value": 1.5, "unit": "mg/dL"}, {"measurement": "ABSOLUTE EOSINOPHIL", "setting": "[2]", "value": 29.6, "unit": "CELLS/uL"}, {"measurement": "ABSOLUTE LYMPHOCYTE", "setting": "[2]", "value": 12329.2, "unit": "CELLS/uL"}, {"measurement": "ABSOLUTE MONOCYTE", "setting": "[2]", "value": 476.6, "unit": "CELLS/uL"}, {"measurement": "ABSOLUTE SEGMENTED NEUTROPHIL", "setting": "[2]", "value": 1764.6, "unit": "CELLS/uL"}, {"measurement": "EOSINOPHIL", "setting": "[2]", "value": 0.2, "unit": "%"}, {"measurement": "ERYTHROCYTE COUNT", "setting": "[2]", "value": 7.17, "unit": "x10E6/uL"}, {"measurement": "HEMATOCRIT", "setting": "[2]", "value": 43, "unit": "%"}, {"measurement": "HEMOGLOBIN", "setting": "[2]", "value": 15.88, "unit": "G/DL"}, {"measurement": "LEUKOCYTE COUNT", "setting": "[2]", "value": 14.6, "unit": "x10E3/uL"}, {"measurement": "LYMPHOCYTE", "setting": "[2]", "value": 84.4, "unit": "%"}, {"measurement": "MEAN CORPUSCULAR HEMOGLOBIN", "setting": "[2]", "value": 22.2, "unit": "pg"}, {"measurement": "MEAN CORPUSCULAR HEMOGLOBIN CONCENTRATION", "setting": "[2]", "value": 37, "unit": "G/DL"}, {"measurement": "MEAN CORPUSCULAR VOLUME", "setting": "[2]", "value": 60.02, "unit": "fL"}, {"measurement": "MONOCYTE", "setting": "[2]", "value": 3.2, "unit": "%"}, {"measurement": "NEUTROPHIL", "setting": "[2]", "value": 12.2, "unit": "%"}, {"measurement": "PLATELET COUNT", "setting": "[2]", "value": 1301.6, "unit": "x10E3/uL"}, {"measurement": "ABSOLUTE BASOPHIL", "setting": "[3]", "value": 0, "unit": "CELLS/uL"}, {"measurement": "ABSOLUTE EOSINOPHIL", "setting": "[3]", "value": 0, "unit": "CELLS/uL"}, {"measurement": "ABSOLUTE LYMPHOCYTE", "setting": "[3]", "value": 7700, "unit": "CELLS/uL"}, {"measurement": "ABSOLUTE MONOCYTE", "setting": "[3]", "value": 77.67, "unit": "CELLS/uL"}, {"measurement": "ABSOLUTE SEGMENTED NEUTROPHIL", "setting": "[3]", "value": 589, "unit": "CELLS/uL"}, {"measurement": "BASOPHIL", "setting": "[3]", "value": 0, "unit": "%"}, {"measurement": "EOSINOPHIL", "setting": "[3]", "value": 0, "unit": "%"}, {"measurement": "ERYTHROCYTE COUNT", "setting": "[3]", "value": 6.05, "unit": "x10E6/uL"}, {"measurement": "HEMATOCRIT", "setting": "[3]", "value": 38.4, "unit": "%"}, {"measurement": "HEMOGLOBIN", "setting": "[3]", "value": 14.97, "unit": "G/DL"}, {"measurement": "LEUKOCYTE COUNT", "setting": "[3]", "value": 8.37, "unit": "x10E3/uL"}, {"measurement": "LYMPHOCYTE", "setting": "[3]", "value": 88, "unit": "%"}, {"measurement": "MEAN CORPUSCULAR HEMOGLOBIN", "setting": "[3]", "value": 24.73, "unit": "pg"}, {"measurement": "MEAN CORPUSCULAR HEMOGLOBIN CONCENTRATION", "setting": "[3]", "value": 38.97, "unit": "G/DL"}, {"measurement": "MEAN CORPUSCULAR VOLUME", "setting": "[3]", "value": 63.43, "unit": "fL"}, {"measurement": "MONOCYTE", "setting": "[3]", "value": 1.33, "unit": "%"}, {"measurement": "NEUTROPHIL", "setting": "[3]", "value": 10.67, "unit": "%"}, {"measurement": "NUCLEATED RED BLOOD CELLS", "setting": "[3]", "value": "0 /100WBC"}, {"measurement": "PLATELET COUNT", "setting": "[3]", "value": 1080.33, "unit": "x10E3/uL"}, {"measurement": "ALANINE AMINOTRANSFERASE", "setting": "[4]", "value": 196, "unit": "u/L"}, {"measurement": "ALBUMIN", "setting": "[4]", "value": 4.36, "unit": "G/DL"}, {"measurement": "ALKALINE PHOSPHATASE", "setting": "[4]", "value": 902, "unit": "u/L"}, {"measurement": "ASPARTATE AMINOTRANSFERASE", "setting": "[4]", "value": 462.4, "unit": "u/L"}, {"measurement": "BLOOD UREA NITROGEN", "setting": "[4]", "value": 20.8, "unit": "mg/dL"}, {"measurement": "CARBON DIOXIDE", "setting": "[4]", "value": 16.6, "unit": "mmol/L"}, {"measurement": "CHLORIDE", "setting": "[4]", "value": 107.4, "unit": "MEQ/L"}, {"measurement": "CHOLESTEROL", "setting": "[4]", "value": 77.6, "unit": "mg/dL"}, {"measurement": "CREATINE PHOSPHOKINASE", "setting": "[4]", "value": 516, "unit": "u/L"}, {"measurement": "CREATININE", "setting": "[4]", "value": 0.44, "unit": "mg/dL"}, {"measurement": "GLUCOSE", "setting": "[4]", "value": 134.8, "unit": "mg/dL"}, {"measurement": "LACTATE DEHYDROGENASE", "setting": "[4]", "value": 597.4, "unit": "u/L"}, {"measurement": "LIPASE", "setting": "[4]", "value": 10.6, "unit": "u/L"}, {"measurement": "PHOSPHORUS", "setting": "[4]", "value": 13.48, "unit": "mg/dL"}, {"measurement": "POTASSIUM", "setting": "[4]", "value": 5.66, "unit": "MEQ/L"}, {"measurement": "SODIUM", "setting": "[4]", "value": 144.48, "unit": "MEQ/L"}, {"measurement": "TOTAL BILIRUBIN", "setting": "[4]", "value": 0.72, "unit": "mg/dL"}, {"measurement": "TOTAL PROTEIN", "setting": "[4]", "value": 6.04, "unit": "G/DL"}, {"measurement": "URIC ACID", "setting": "[4]", "value": 2.72, "unit": "mg/dL"}, {"measurement": "ALANINE AMINOTRANSFERASE", "setting": "[5]", "value": 73.33, "unit": "u/L"}, {"measurement": "ALBUMIN", "setting": "[5]", "value": 4.4, "unit": "G/DL"}, {"measurement": "ALKALINE PHOSPHATASE", "setting": "[5]", "value": 416, "unit": "u/L"}, {"measurement": "ASPARTATE AMINOTRANSFERASE", "setting": "[5]", "value": 103.67, "unit": "u/L"}, {"measurement": "BLOOD UREA NITROGEN", "setting": "[5]", "value": 14.67, "unit": "mg/dL"}, {"measurement": "CARBON DIOXIDE", "setting": "[5]", "value": 34.33, "unit": "mmol/L"}, {"measurement": "CHLORIDE", "setting": "[5]", "value": 98.67, "unit": "MEQ/L"}, {"measurement": "CHOLESTEROL", "setting": "[5]", "value": 81.67, "unit": "mg/dL"}, {"measurement": "CREATINE PHOSPHOKINASE", "setting": "[5]", "value": 203.67, "unit": "u/L"}, {"measurement": "CREATININE", "setting": "[5]", "value": 0.22, "unit": "mg/dL"}, {"measurement": "GLUCOSE", "setting": "[5]", "value": 153.67, "unit": "mg/dL"}, {"measurement": "LACTATE DEHYDROGENASE", "setting": "[5]", "value": 179, "unit": "u/L"}, {"measurement": "LIPASE", "setting": "[5]", "value": 10.67, "unit": "u/L"}, {"measurement": "PHOSPHORUS", "setting": "[5]", "value": 10, "unit": "mg/dL"}, {"measurement": "POTASSIUM", "setting": "[5]", "value": 5.43, "unit": "MEQ/L"}]}
